In brackets after ≈: the same amount, converted by molar mass. Activity calls are given as the source filed them. No cut-off for these calls is given here.
Assays:
[1] = system: Porphyromonas canoris; assay: Minimum inhibitory concentration against Porphyromonas canoris (ATCC NCTC 12835) using agar method; format: functional
[2] = system: Schaalia meyeri; assay: Minimum inhibitory concentration against Actinomyces meyeri (ATCC 61789) using agar method; format: functional
[3] = system: Staphylococcus aureus; assay: Minimum inhibitory concentration against Staphylococcus aureus (ATCC NCTC 6571) using agar method; format: functional
[4] = system: Pasteurella sp.; assay: Minimum inhibitory concentration against Pasteurella sp.(ATCC 67535) using agar method; format: functional
[5] = system: Prevotella buccae; assay: Minimum inhibitory concentration against Bacteroides buccae (ATCC 67792) using agar method; format: functional; conditions: Segatella buccae
[6] = system: Pasteurella sp.; assay: Minimum inhibitory concentration against Pasteurella sp.(ATCC 69527) using agar method; format: functional
[7] = system: Propionibacterium; assay: Minimum inhibitory concentration against Propionibacterium sp.(ATCC 72661) using agar method; format: functional
[8] = system: Pseudoflavonifractor capillosus; assay: Minimum inhibitory concentration against Bacteroides capillosus (ATCC 60802) using agar method; format: functional
[9] = system: Corynebacterium sp.; assay: Minimum inhibitory concentration against Corynebacterium sp. (ATCC 68984) using agar method; format: functional
[10] = system: Porphyromonas canoris; assay: Minimum inhibitory concentration against Porphyromonas canoris (ATCC NCTC 12836) using agar method; format: functional
[11] = system: Pasteurella multocida; assay: Minimum inhibitory concentration against Pasteurella multocida (ATCC 61096) using agar method; format: functional
[12] = system: Fusobacterium sp.; assay: Minimum inhibitory concentration against Fusobacterium sp.(ATCC 74714) using agar method; format: functional, fusobacterium species
[13] = system: Actinomyces sp.; assay: Minimum inhibitory concentration against Actinomyces sp.(ATCC 70710) using agar method; format: functional
[14] = system: Bacteroides uniformis; assay: Minimum inhibitory concentration against Bacteroides uniformis (ATCC 62723) using agar method; format: functional
[15] = system: Bacteroides ovatus; assay: Minimum inhibitory concentration against Bacteroides ovatus (ATCC 66640) using agar method; format: functional
[16] = system: Pasteurella multocida; assay: Minimum inhibitory concentration against Pasteurella multocida (ATCC 63560) using agar method; format: functional
[17] = system: Pasteurella sp.; assay: Minimum inhibitory concentration against Pasteurella sp.(ATCC 71886) using agar method; format: functional
[18] = system: Prevotella bivia; assay: Minimum inhibitory concentration against Bacteroides bivus (ATCC 64362) using agar method; format: functional
[19] = system: Fusobacterium mortiferum; assay: Minimum inhibitory concentration against Fusobacterium mortiferum (ATCC 63425) using agar method; format: functional
[20] = system: Hoylesella oralis; assay: Minimum inhibitory concentration against Bacteroides oralis (ATCC 72708) using agar method; format: functional
[21] = system: Escherichia coli; assay: Minimum inhibitory concentration against Escherichia coli (ATCC NCTC 6571) using agar method; format: functional
[22] = system: Pasteurella sp.; assay: Minimum inhibitory concentration against Pasteurella sp.(ATCC 67777) using agar method; format: functional
[23] = system: Porphyromonas gingivalis; assay: Minimum inhibitory concentration against Porphyromonas gingivalis sp.(ATCC D23C) using agar method; format: functional
[24] = system: Prevotella buccae; assay: Antibacterial activity against Bacteroides buccae (ATCC 67792) at a concentration of 200 ug/mL; not active; format: functional, organism-based; conditions: Segatella buccae
[25] = system: Staphylococcus aureus; assay: Antibacterial activity against Staphylococcus aureus (ATCC NCTC 6571) at a concentration of 200 ug/mL; not active; format: functional, organism-based
[26] = system: Porphyromonas gingivalis; assay: Antibacterial activity against Porphyromonas gingivalis sp.(ATCC D23C) at a concentration of 200 ug/mL; format: functional, organism-based
[27] = system: Pasteurella multocida; assay: Antibacterial activity against Pasteurella multocida (ATCC 63560) at a concentration of 200 ug/mL; not active; format: functional, organism-based
[28] = system: Actinomyces sp.; assay: Antibacterial activity against Actinomyces sp.(ATCC 70710) at a concentration of 200 ug/mL; Active; format: functional, organism-based
[29] = system: Propionibacterium; assay: Antibacterial activity against Propionibacterium sp.(ATCC 72661) at a concentration of 200 ug/mL; Active; format: functional, organism-based
[30] = system: Bacteroides uniformis; assay: Antibacterial activity against Bacteroides uniformis (ATCC 62723) at a concentration of 200 ug/mL; not active; format: functional, organism-based
[31] = system: Escherichia coli; assay: Antibacterial activity against Escherichia coli (ATCC NCTC 6571) at a concentration of 200 ug/mL; not active; format: functional, organism-based
[32] = system: Pasteurella sp.; assay: Antibacterial activity against Pasteurella sp.(ATCC 69527) at a concentration of 200 ug/mL; not active; format: functional, organism-based
[33] = system: Corynebacterium sp.; assay: Antibacterial activity against Corynebacterium sp. (ATCC 68984) at a concentration of 200 ug/mL; Active; format: functional, organism-based
[34] = system: Pasteurella sp.; assay: Antibacterial activity against Pasteurella sp.(ATCC 67777) at a concentration of 200 ug/mL; not active; format: functional, organism-based
[35] = system: Porphyromonas canoris; assay: Antibacterial activity against Porphyromonas canoris (ATCC NCTC 12836) at a concentration of 200 ug/mL; Active; format: functional, organism-based
[36] = system: Prevotella bivia; assay: Antibacterial activity against Bacteroides bivus (ATCC 64362) at a concentration of 200 ug/mL; not active; format: functional, organism-based
[37] = system: Bacteroides ovatus; assay: Antibacterial activity against Bacteroides ovatus (ATCC 66640) at a concentration of 200 ug/mL; not active; format: functional, organism-based
[38] = system: Fusobacterium sp.; assay: Antibacterial activity against Fusobacterium sp.(ATCC 74714) at a concentration of 200 ug/mL; not active; format: functional, organism-based
[39] = system: Pasteurella sp.; assay: Antibacterial activity against Pasteurella sp.(ATCC 67535) at a concentration of 200 ug/mL; Active; format: functional, organism-based
[40] = system: Pasteurella multocida; assay: Antibacterial activity against Pasteurella multocida (ATCC 61096) at a concentration of 200 ug/mL; not active; format: functional, organism-based
[41] = system: Porphyromonas canoris; assay: Antibacterial activity against Porphyromonas canoris (ATCC NCTC 12835) at a concentration of 200 ug/mL; Active; format: functional, organism-based
[42] = system: Pseudoflavonifractor capillosus; assay: Antibacterial activity against Bacteroides capillosus (ATCC 60802) at a concentration of 200 ug/mL; not active; format: functional, organism-based
[43] = system: Pasteurella sp.; assay: Antibacterial activity against Pasteurella sp.(ATCC 71886) at a concentration of 200 ug/mL; not active; format: functional, organism-based
[44] = system: Schaalia meyeri; assay: Antibacterial activity against Actinomyces meyeri (ATCC 61789) at a concentration of 200 ug/mL; Active; format: functional, organism-based
[45] = system: Fusobacterium mortiferum; assay: Antibacterial activity against Fusobacterium mortiferum (ATCC 63425) at a concentration of 200 ug/mL; not active; format: functional, organism-based
[46] = system: Hoylesella oralis; assay: Antibacterial activity against Bacteroides oralis (ATCC 72708) at a concentration of 200 ug/mL; not active; format: functional, organism-based

`CCC[C@@H]1OC(=O)[C@@H](C)C[C@H](C)CCCCC(=O)CCC[C@@H](CC)/C=C/C=C(\COC)CC[C@@H](O)[C@@H](O)C[C@H](O)CNC1=O` showed an MIC [1] of 25 µg/mL (≈ 40.1 µM), an MIC [2] greater than 50 µg/mL and an MIC [3] greater than 50 µg/mL. For the same compound, the MIC [4] was 12.5 µg/mL (≈ 20 µM), the MIC [5] was 12.5 µg/mL (≈ 20 µM) and the MIC [6] was 25 µg/mL (≈ 40.1 µM). It also gave an MIC [7] greater than 50 µg/mL, an MIC [8] of 25 µg/mL (≈ 40.1 µM) and an MIC [9] greater than 50 µg/mL. The MIC [10] was 25 µg/mL (≈ 40.1 µM), the MIC [11] was greater than 50 µg/mL and the MIC [12] was greater than 50 µg/mL. The MIC [13] was greater than 50 µg/mL, the MIC [14] was greater than 50 µg/mL and the MIC [15] was greater than 50 µg/mL. For the same compound, the MIC [16] was greater than 50 µg/mL, the MIC [17] was 12.5 µg/mL (≈ 20 µM) and the MIC [18] was greater than 50 µg/mL. It also gave an MIC [19] of 12.5 µg/mL (≈ 20 µM), an MIC [20] greater than 50 µg/mL and an MIC [21] of 6.25 µg/mL (≈ 10 µM). It also gave an MIC [22] of 12.5 µg/mL (≈ 20 µM) and an MIC [23] of 25 µg/mL (≈ 40.1 µM).
In the case of `CCC[C@@H]1OC(=O)[C@@H](C)C[C@H](C)CCCCC(=O)CCC[C@@H](CC)CC/C=C(\COC)CC[C@@H](O)[C@@H](O)C[C@H](O)CNC1=O`, the MIC [2] is reported as 12.5 µg/mL (≈ 20 µM), the MIC [3] is reported as greater than 50 µg/mL and the MIC [4] is reported as 0.78 µg/mL (≈ 1.25 µM). It also gave an MIC [5] greater than 50 µg/mL, an MIC [6] of 3.12 µg/mL (≈ 4.98 µM) and an MIC [8] of 12.5 µg/mL (≈ 20 µM). For the same compound, the MIC [9] was 12.5 µg/mL (≈ 20 µM), the MIC [11] was 1.56 µg/mL (≈ 2.49 µM) and the MIC [14] was 12.5 µg/mL (≈ 20 µM). For the same compound, the MIC [15] was 12.5 µg/mL (≈ 20 µM), the MIC [16] was 0.78 µg/mL (≈ 1.25 µM) and the MIC [17] was 0.78 µg/mL (≈ 1.25 µM). It also gave an MIC [18] of 6.25 µg/mL (≈ 9.99 µM), an MIC [19] greater than 50 µg/mL and an MIC [20] of 6.25 µg/mL (≈ 9.99 µM). For the same compound, the MIC [21] was 3.12 µg/mL (≈ 4.98 µM), the MIC [22] was 1.56 µg/mL (≈ 2.49 µM) and the MIC [23] was 1.56 µg/mL (≈ 2.49 µM).
For `CCC[C@@H]1OC(=O)CCCCCCCCCCCCCC/C=C(\C)CC[C@@H](O)[C@@H](O)C[C@H](O)CNC1=O`, the Activity [24] was “inactive”, the Activity [25] was “inactive” and the Activity [26] was “inactive”. For the same compound, the Activity [27] was “inactive”, the Activity [28] was “Active” and the Activity [29] was “Active”. For the same compound, the Activity [30] was “inactive”, the Activity [31] was “inactive” and the Activity [32] was “inactive”. The Activity [33] was “Active”, the Activity [34] was “inactive” and the Activity [35] was “Active”. For the same compound, the Activity [36] was “inactive”, the Activity [37] was “inactive” and the Activity [38] was “inactive”. The Activity [39] was “Active”, the Activity [40] was “inactive” and the Activity [41] was “Active”. For the same compound, the Activity [42] was “inactive”, the Activity [43] was “inactive” and the Activity [44] was “Active”. The Activity [45] was “inactive” and the Activity [46] was “inactive”.

From ChEMBL document CHEMBL1136505, “Myxovirescin analogues via macrocyclic ring-closing metathesis” (2003)
